The record followed here is patent US8791272B2, “Pyrazole compounds as CRTH2 antagonists” (Boehringer Ingelheim International GmbH, priority 2011, dated 2014).

Each structure is given as a SMILES string.

human CRTH2 receptor, sequence (Q9Y5Y4 whole entry): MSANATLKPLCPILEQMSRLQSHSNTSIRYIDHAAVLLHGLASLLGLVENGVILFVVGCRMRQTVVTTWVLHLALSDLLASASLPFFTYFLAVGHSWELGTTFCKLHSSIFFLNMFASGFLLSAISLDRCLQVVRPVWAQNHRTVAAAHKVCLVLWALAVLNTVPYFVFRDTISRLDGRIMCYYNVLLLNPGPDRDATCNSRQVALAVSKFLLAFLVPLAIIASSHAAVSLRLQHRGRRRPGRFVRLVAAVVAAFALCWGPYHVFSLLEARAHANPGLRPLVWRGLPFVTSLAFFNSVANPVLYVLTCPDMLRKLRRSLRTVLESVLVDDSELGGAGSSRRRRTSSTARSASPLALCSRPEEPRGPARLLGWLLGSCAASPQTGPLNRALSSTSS

In the assay the target is human CRTH2 receptor (Homo sapiens (Human), UniProt Q9Y5Y4). The assay is described as follows: CRTH2 receptor radioligand binding assay (SPA, [3H]-PGD2 displacement). The conditions noted are these: [3H]-PGD2 1 nM, CHO-K1-hCRTH2 cell membranes, SPA format, 3 h room temperature. How it is done:
The binding of CRTH2 antagonists is determined using membranes prepared from Chinese hamster ovary cells (CHO-K1 cells) transfected with the human CRTH2 receptor (CHO-K1-hCRTH2 cells, Perkin Elmer, Cat No ES-561-C). To produce cell membranes the CHO-K1-hCRTH2 cells are cultured in suspension in CHO SFMII medium supplemented with 400 μg/ml G418. The cells are harvested by centrifugation at 300 g for 10 min at room temperature. The cell pellet is resuspended in Phosphate Buffer Saline (PBS) including a protease inhibitor mix (Complete, Roche) and adjusted to a concentration of 10E7 cells/ml. The CHO-K1-hCRTH2 cells are disrupted by nitrogen […] to obtain the membrane preparation. Cell debris is removed by centrifugation (500 g at 4° C., 30 min) and the supernatant is transferred into fresh tubes followed by a second centrifugation at 40000 g for 1 h at 4° C. to sediment the membranes. The membranes are suspended in SPA incubation buffer (50 mM Tris HCl, 10 mM MgCl2, 150 mM NaCl, 1 mM EDTA, pH 7.4) without bovine serum albumin, homogenized by passing through a single use needle (Terumo, 23G×1″), and stored in aliquots at −80° C.
The CRTH2 receptor binding assay is performed in a scintillation proximity assay (SPA) format with the radioligand [^3H]-PGD2 (Perkin Elmer, NET616000MC). CHO-K1-hCRTH2 cell membranes are again homogenized by passing through a single use needle (Terumo, 23G×1″) and diluted in SPA incubation buffer in suitable concentrations (0.5-10 μg protein/well). The SPA assay is set up in 96 well microtiter plates (Perkin Elmer, CatNo. 6005040) in SPA incubation buffer with a final volume of 200 μl per well and final concentration of 50 mM Tris-HCl, 10 mM MgCl2, 150 mM NaCl, 1 mM EDTA pH 7.4, 0.1% bovine serum albumin). The SPA assay mixture contains 60 μl of the membrane suspension, 80 μl of Wheat Germ Agglutinin coated PVT beads (GE Healthcare, RPNQ-0001, 0.3 mg/well), 40 μl of [3H]-PGD2 diluted in SPA buffer to a final concentration of 1 nM (50 000 dpm) and 20 μl of the test compound (dissolved in dimethylsulfoxid). The SPA assay mixture is incubated for 3 h at room temperature. Bound radioactivity is determined with a scintillation counter (Micro Beta Trilux, Wallac).
The binding of [^3H]-PGD2 to CHO-K1-hCRTH2 cell membranes is determined in the absence (total binding, Bo) and presence (non-specific binding, NSB) of unlabelled PGD2 (1 μM, Cayman Chemical, Cat No 12010) or a reference CRTH2 antagonist (10 μM CAY10471, Cayman Chemical, Cat No 10006735).
Determination of the affinity of a test compound is calculated by subtraction of the non-specific binding (NSB) from the total binding (Bo) or the binding in the presence of the test compound (B) at a given compound concentration. […] The Bo-NSB value is set to 0% inhibition.
Broadly, the Ki is a measure of affinity in units of concentration, obtained from inhibition or displacement. As to `CCCc1nn(Cc2ccc(NC(=O)c3ccc(C(F)(F)F)cc3C)cc2)c(C(C)C)c1CC(=O)O` [Example 2.36], affinity was put at a Ki of 0.7 nM.

The molecule `CCCc1nn(Cc2ccc(NC(=O)c3ccc(Cl)cc3)cc2)c(C(C)C)c1CC(=O)O` [Example 2.37] showed a Ki of 0.4 nM.

`CCCc1nn(Cc2ccc(NC(=O)c3ccc(Cl)cc3C)cc2)c(C(C)C)c1CC(=O)O` [Example 2.38] came in with a Ki of 1 nM.

The molecule `CCCc1nn(Cc2ccc(NC(=O)c3ccccc3)cc2)c(C(C)C)c1CC(=O)O` [Example 2.39] yielded an inhibitory constant (Ki) of 1.6 nM.

Regarding `CCCc1nn(Cc2ccc(NC(=O)c3ccc(Cl)c(Cl)c3)cc2)c(C(C)C)c1CC(=O)O` [Example 2.40], the affinity, expressed as Ki, was 0.2 nM.

`CCCc1nn(Cc2ccc(NC(=O)c3ccc(C(F)(F)F)cc3)cc2)c(C(C)C)c1CC(=O)O` [Example 2.41] registered an inhibition constant Ki of 0.2 nM.

`CCCc1nn(Cc2ccc(NC(=O)c3ccc4ccccc4c3)cc2)c(C(C)C)c1CC(=O)O` [Example 2.42] had an inhibitory constant (Ki) of 0.1 nM.

In the case of `Cc1nn(Cc2ccc(/C=C/c3ccc(C(F)(F)F)cc3)cc2)c(C)c1CC(=O)O` [Example 12.2, (3,5-Dimethyl-1-{4-[(E)-2-(4-trifluoromethyl-phenyl)-vinyl]-benzyl}-1H-pyrazol-4-yl)-acetic acid], the inhibition constant (Ki) was 56.3 nM.

`CCc1nn(Cc2ccc(OCc3ccc(Cl)c(C(F)(F)F)c3)cc2)c(CC)c1CC(=O)O` [Example 13.7] had a Ki of 4.8 nM.
